Like-named read-outs stand apart in the source and are kept apart here.
Columns and labels:
Aβ42 = test: Chronic treatment of APP23 mice: Triton TX-100 soluble Aβ42 in brain; assay type: in vivo, mouse
Experimental: (§1) Frozen mouse forebrains were weighed and homogenized in 9 volumes (w/v) of ice-cold TBS-Complete (20 mM Tris-HCl pH 7.4, 137 mM NaCl, 1× Complete [Protease Inhibitor Cocktail Tablets: 1 836 145, Roche Diagnostics GmbH, Penzberg, Germany]) by sonication (90% duty cycle, output control 5, 40-55 pulses, [Sonifier 450, Branson]). After homogenization several 50 μl aliquots were prepared for analysis and were stored at −80° C.
Human Aβ40 and 42 in mice was determined with the Meso Scale Discovery (MSD) 96-well MULTI-ARRAY human/rodent (6E10) Aβ40/42 Assay (Meso Scale Discovery, Rockville, Md., USA) as described in [RD-2010-00284]. The assay was done according to the manufacturer's instructions except for the calibration curve and the sample preparations. […]
The calibration curve was prepared in a corresponding dilution of 1% Blocker A solution spiked with synthetic Aβ1-40 peptide (1.56-100 pg/ml) except for non-transgenic mouse brain samples: In this case, the calibration curve was prepared in a correspondingly diluted APP knockout mouse forebrain spiked with synthetic Aβ1-40 peptide (1.56-100 pg/ml). […] The relative units for samples and standards were imported into SOFTmax PRO 4.0 for calculation of standard curves and quantification of samples. […]

[1] = 3-month dose-ranging safety and tolerability study; assay type: in vivo, human; settings: once-daily doses of 2, 10, 35 and 85 mg over three months; healthy elderly
Source text: (§2) This study is listed in ClinicalTrials.gov under the NCT02576639 Identifier code.
(§3) The primary purpose of this study was to expand on previous safety and tolerability data obtained over 2-week and 4-week duration in the first in human study and thereby allow initiation of future long-term efficacy trials in subjects at risk of AD and CAA. In addition, data relevant for Pharmacokinetic/Pharmacodynamic modeling was obtained in order to support dose selection decisions for future efficacy studies.

Aβ40 [2] = test: Chronic treatment of APP23 mice: Triton TX-100 soluble Aβ40 in brain; assay type: in vivo, mouse
Experimental: as §1
Human Aβ40 and 42 in mice was determined with the Meso Scale Discovery (MSD) 96-well MULTI-ARRAY human/rodent (6E10) Aβ40/42 Assay (Meso Scale Discovery, Rockville, Md., USA) as described in [RD-2010-00284]. The assay was done according to the manufacturer's instructions except for the calibration curve and the sample preparations. TritonX-100 (TX-100) soluble Aβ40 and 42 was extracted from forebrain with 1% TX-100 using a 50 μl aliquot of each 1:10 forebrain homogenate, mixed with 50 μl 2% TX-100 in TBS complete (20 mM Tris-HCl pH 7.4, 137 mM NaCl, 1× Complete [Protease Inhibitor Cocktail Tablets: 1 836 145, Roche Diagnostics GmbH, Penzberg Germany]) to reach a final concentration of 1% TX-100 and a 1:20 forebrain dilution. The samples were incubated for 15 min on ice and vortexed every 5 min. The samples were ultra-centrifuged (100000×g, 4° C., 15 min) and 50 μl of the clear supernatants were transferred to fresh tubes. The supernatants were further diluted 1:5 in 3% Blocker A solution (from kit) to a final forebrain dilution of 1:100 and applied to the plate.
The calibration curve was prepared in a corresponding dilution of 1% Blocker A solution spiked with synthetic Aβ1-40 peptide (1.56-100 pg/ml) except for non-transgenic mouse brain samples: In this case, the calibration curve was prepared in a correspondingly diluted APP knockout mouse forebrain spiked with synthetic Aβ1-40 peptide (1.56-100 pg/ml). For all samples and standards 25 μl were applied per well. For each determination duplicate wells were done. The mean values from the duplicate wells were used for calculations. The relative units for samples and standards were imported into SOFTmax PRO 4.0 for calculation of standard curves and quantification of samples.
Brain homogenates were extracted with 1% Triton X-100 in buffer and the resulting supernatant was considered to represent soluble forms of APP metabolites. In addition to Aβ40 and 42, we determined the N-terminal APP fragments sAPPα (direct cleavage product of α-secretase) and sAPPβ (Swe) (direct product of BACE1 cleavage). […] Since no change in the APP expression and Aβ generation is known to happen during this age, it is assumed that the increased values in the vehicle group (18-20 mo old) arise from “leakage” out of the Aβ deposits (which increase several fold, see below).

[3] = First-in-human study: safety and tolerability; assay type: in vivo; settings: healthy elderly subjects ≥60 years
Source text: The purpose of this study was to determine the single and multiple maximum tolerated dose of Compound 1 and to assess the pharmacokinetic/pharmacodynamic (PK/PD) relationship using Aβ in CSF as primary PD biomarker.

Aβ40 [4] = test: Chronic treatment of APP23 mice: formic acid soluble Aβ40 in forebrain; assay type: in vivo, mouse; settings: high Compound 1 treatment group
Experimental: as §1
Fifty microliter of forebrain homogenate was mixed with 116.6 μl 100% formic acid, resulting in a final formic acid concentration of 70%. Samples were stored on ice and vortexed every 5 minutes. For neutralization, 50 μl of the mixture were pipetted into a new tube, and 950 μl of 1 M Tris base, containing 1× Complete Protease inhibitor, was added. Tubes were stored at room temperature overnight and then centrifuged for 15 minutes at 14000 rpm in an Eppendorf Microzentrifuge at 4° C. From the top layer, 100 μl are removed and mixed with 100 μl of 3% Blocker A solution (part of the MesoScale assay kit). This sample was either directly applied to the assay plate (dilution 1:1332) or further diluted in 1% Blocker A solution.
Amyloid-β42 increased more than Aβ40 (Aβ42/40 ratio increased by 55% in the vehicle group), in agreement with its higher aggregation propensity.

[5] = 3-month dose-ranging study: plasma pharmacokinetics on Day 91; assay type: in vivo; settings: human, oral, read-out: expected plasma Cmax,ss
Aβ40 in CSF = test: 3-month dose-ranging study: Aβ40 in CSF; assay type: in vivo; settings: first-in-human and 3-month studies
Source text: as §2, §3
The extent of Aβ lowering was stable over time with PD steady-state being reached after approximately 2-3 weeks.
In the completed first-in-human and 3-month dose-ranging safety and tolerability clinical studies described in Examples 3 and 4, Aβ concentrations in CSF were obtained by means of lumbar punctures before the first dose (baseline) and respectively after 2 weeks and 3 months of multiple dosing. ApoE4 genotype also was obtained in the subjects who consented. The percent change from baseline in Aβ40 and Aβ42 concentrations was calculated in subjects who took the study treatment and had no major protocol deviation with potential impact on the evaluation of the pharmacodynamic effect. Tables 13 to 16 below provide summary statistics of the percent change from baseline by treatment group and ApoE genotype (E4 heterozygotes versus E4 non-carriers). […]

[6] = 13-week oral safety study in aged APP23 mice: body weight; assay type: in vivo, mouse; settings: chronic treatment, 13 weeks; aged female APP23 mice
Experimental: Body weight range: 26 to 36 g (at start of dosing)
Means and standard deviations (SD), standard error of the mean (SEM) and coefficient of variation (CV) as indicated accordingly were calculated and an Analysis of Variance (ANOVA) performed. For the analysis of body weights a 2way ANOVA with Turkey's multiple comparison test was performed using GraphPad Prism 6. ANOVA with random effects statistical analyses were performed on MRI data using Systat Version 13 (Systat Software, Inc., San Jose, Calif., USA).

Q: Which “Aβ42 change vs vehicle (TX-100 soluble)” value (Aβ42; 0.03 g/kg vs vehicle) does the source give for C[C@@]1(c2nc(NC(=O)c3ncc(C(F)(F)F)cc3Cl)ccc2F)CO[C@@](C)(C(F)(F)F)C(N)=N1 [Compound 1, N-(6-((3R,6R)-5-amino-3,6-dimethyl-6-(trifluoromethyl)-3,6-dihydro-2H-1,4-oxazin-3-yl)-5-fluoropyridin-2-yl)-3-chloro-5-(trifluoromethyl)picolinamide] here?
A: −20.1%

Q: What about the “Aβ42 change vs vehicle (TX-100 soluble)” value (Aβ42; 0.3 g/kg vs vehicle) of the same molecule?
A: −77.3%

Q: And the safety and tolerability [1]?
A: safe and tolerated

Q: What about the “Aβ40 change vs vehicle (TX-100 soluble)” value (Aβ40 [2]; 0.03 g/kg vs vehicle) of the same molecule?
A: −4.6%

Q: And the “Aβ40 change vs vehicle (TX-100 soluble)” value (Aβ40 [2]; 0.3 g/kg vs vehicle)?
A: −43.7%

Q: What about the “treatment effects on soluble Aβ species from brain tissue and Aβ40 in CSF” value (Aβ40 [2]; high Compound 1 dose) of the same molecule?
A: −43.7 to −77%

Q: What about the “treatment effects on soluble Aβ species from brain tissue and Aβ40 in CSF” value (Aβ40 [2]; low Compound 1 dose) of the same molecule?
A: −4.6 to −20%

Q: And the safety and tolerability ([3]; 300 mg QD over two weeks)?
A: safe and tolerated

Q: What about the safety and tolerability ([3]; 750 mg single dose) of the same molecule?
A: safe and tolerated

Q: What about the “reduction of deposited Aβ40 and 42 vs vehicle” value (Aβ40 [4]) of the same molecule?
A: around 80%

Q: What about the Cmax ([5]; once daily dose of 15 mg) of the same molecule?
A: 70 to 170 ng/mL

Q: What about the Cmax ([5]; once daily dose of 50 mg) of the same molecule?
A: 200 to 500 ng/mL

Q: What about the “CSF Aβ40 and Aβ42 response to treatment, ApoE4 carriers vs non-carriers” value (Aβ40 in CSF) of the same molecule?
A: no difference

Q: And the body weight [6]?
A: did not lead to any change in body weight

Reference: patent US10722518B2, “Oxazine derivative for use in the treatment or prevention of cerebral amyloid angiopathy” (Novartis AG, priority 2016, dated 2020)
